How the values were obtained:
male and female rats [1] = assay: Subchronic toxicity study
male and female rats [2] = assay: Acute toxicity study; type: in vivo, rat
[3] = tested on: human potassium hERG channel; conditions: ref unpublished results; cited from earlier work
[4] = Pharmacokinetic study of URB937 in rats; type: in vivo, rat
[5] = ref unpublished results; cited from earlier work
[6] = tested on: OEA levels (biomarker of FAAH activity); assay: OEA levels in liver and plasma after oral URB937; type: in vivo; conditions: rat, oral 0.3, 1, 3, 10 mg/kg, one hour
[7] = male and female rats, 100, 300, 1000 mg/kg oral for 14 days
[8] = male and female rats, single oral 100, 300, 1000 mg/kg
[9] = male rats, single oral 300 mg/kg, 7 days
[10] = male Sprague Dawley rats, 3 mg/kg oral

## NC(=O)c1cccc(-c2cc(OC(=O)NC3CCCCC3)ccc2O)c1 [URB937]
Male and female rats [1]; female rats, 300 mg/kg oral once daily for 14 days
  food intake: small increase
Male and female rats [1]; [7]
  macroscopic examination at necropsy and microscopic histopathology: did not reveal any abnormality
  mortality: None of the animals died
Male and female rats [1]; male and female rats, subchronic (2 weeks) oral administration of supramaximal doses
  tolerability: well tolerated
Male and female rats [1]; male rats only, 14-day oral administration
  plasma glucose levels: increase
Male and female rats [2]; female rats, single oral 100 mg/kg, 7 days
  food intake: small, but significant increase
Male and female rats [2]; female rats, single oral 1000 mg/kg, 7 days
  water consumption: larger increment
Male and female rats [2]; male and female rats, acute oral administration of supramaximal doses
  tolerability: well tolerated
Male and female rats [2]; [8]
  hematology and blood chemistry screens: no significant alterations
  macroscopic examination at necropsy and microscopic histopathology: did not reveal any abnormality
  mortality: None of the animals died
Male and female rats [2]; [9]
  cumulative food intake: reduced
  cumulative water intake: reduced
[3]
  inhibition of the human potassium hERG channel: does not inhibit
[4]; [10]
  AUCplasma, area under the curve: 656.2 ng·h/mL
  Tmax, time at which Cmax is reached: 1 h
  Vd, distribution volume: 17.9 L
[4]; male Sprague Dawley rats, 3 mg/kg oral vs intravenous
  F, oral bioavailability: 36%
[4]; male Sprague Dawley rats, 3 mg/kg oral, noncompartmental model
  Cl, clearance: 76.64 mL/min
[4]; male Sprague Dawley rats, 3 mg/kg oral, plasma
  Cmax, maximal plasma concentration: 159.47 ng/mL
[4]; male Sprague Dawley rats, 3 mg/kg oral, 3 mg/kg
  t1/2, terminal half-life: 2.702 h
[4]; male rats, 3 mg/kg oral
  t1/2 (cleared from circulation): approximately 3 h
[4]; male rats, 3 mg/kg oral, below limit of detection (LOD 50 pg/ml, LOQ 300 pg/ml)
  brain levels of URB937: < 0.05 ng/mL
[4]; rats, oral 0.3 to 100 mg/kg, 1 h after treatment
  plasma levels of URB937 in dose-escalation study: increased linearly in the dose range of 0.3 to 10 mg/kg and reached saturation between 30 mg/kg and 100 mg/kg
[5]
  genotoxic effects in the Ames' test: does not exert genotoxic effects
[6]
  OEA levels in liver: dose-dependent elevation
  OEA levels in plasma: dose-dependent elevation

Source: PMC6842052 (The Journal of pharmacy and pharmacology, 2019)
